According to patent publication US7429658B2, “Synthesis of protected pyrrolobenzodiazepines” (Spirogen Limited, priority 2003, dated 2008):

Columns and labels:
[1] = Photolytic deprotection of N-10 protected PBD (irradiation at 365 nM), monitored by reversed phase HPLC; format: physicochemical; settings: 0.25 g in MeOH (10 mL) irradiated at 365 nM; HPLC at 1 h intervals against standard of parent PBD 30
Protocol: A solution of the N-10 protected PBD (0.25 g) in MeOH (10 mL was irradiated at 365 nM. The reaction was monitored by reversed phase HPLC (C18 column, 5 μM particle size, 250 mm×4.6 mm; mobile phase 70% H2O/30% CH3CN/0.1% TFA; detection at 245 nM) against a standard sample of the parent PBD 30. Aliquots of the reaction mixture (20 μL) were injected at 1 h intervals. The conversion to parent PBD was complete in 12 h.

[2] = target: T1, Carboxypeptidase G2 (CPG2) (Pseudomonas sp., UniProt P06621); experiment: Carboxypeptidase G2 (CPG2) cleavage of prodrug to parent PBD imine, monitored by reversed phase HPLC; format: biochemical; settings: 100 μM prodrug, CPG2 (1 unit), 100 mM Tris-HCl pH 7.3, 260 μM ZnCl2, 37° C.
T1 sequence (P06621 23-415): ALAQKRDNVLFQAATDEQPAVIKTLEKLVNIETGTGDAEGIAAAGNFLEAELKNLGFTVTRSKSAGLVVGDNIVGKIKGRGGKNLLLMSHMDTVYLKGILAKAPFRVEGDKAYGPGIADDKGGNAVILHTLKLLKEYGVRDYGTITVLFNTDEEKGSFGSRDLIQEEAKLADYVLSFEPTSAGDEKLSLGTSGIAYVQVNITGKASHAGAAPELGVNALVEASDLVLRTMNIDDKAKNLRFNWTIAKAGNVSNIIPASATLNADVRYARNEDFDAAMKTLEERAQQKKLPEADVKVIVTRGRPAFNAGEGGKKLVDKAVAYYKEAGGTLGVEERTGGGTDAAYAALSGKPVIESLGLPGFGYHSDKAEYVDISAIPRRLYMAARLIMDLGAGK
Protocol: An aliquot of a 10 mM stock solution of the carbamate monomer prodrug was diluted to 100 μM in Carboxypeptidase G2 (CPG2) assay buffer (100 mM Tris-HCl, pH 7.3; 260 μM ZnCl2). CPG2 (1 unit) was added and the reaction was incubated at 37° C. The reaction was monitored by reversed phase HPLC (C18 column, 5 μM particle size, 250 mm×4.6 mm; mobile phase 70% H2O/30% CH3CN/0.1% TFA; detection at 245 nM) with 20 μL aliquots being injected at 0, 10, 20, 30, 40, 50 and 60 min. The conversion of the prodrug to the parent imine 30 was complete in 60 minutes.
An aliquot of a 10 mM stock solution of the carbamate dimer prodrug was diluted to 100 μM in Carboxypeptidase G2 (CPG2) assay buffer (100 mM Tris-HCl, pH 7.3; 260 μM ZnCl2). CPG2 (1 unit) was added and the reaction was incubated at 37° C. The reaction was monitored by reversed phase HPLC (C18 column, 5 μM particle size, 250 mm×4.6 mm; mobile phase 70% H2O/30% CH3CN/0.1% TFA; detection at 245 nM) with 20 μL aliquots being injected at 0, 15, 30, 45, 60 and 75 min. The conversion of the prodrug to the parent imine 61 was complete in 75 min.

COc1cc(COC(=O)N2c3cc(OC)c(OC)cc3C(=O)N3CCC[C@H]3[C@@H]2O)c([N+](=O)[O-])cc1OC [Compound 28, (11S,11aS)-7,8-Dimethoxy-11-hydroxy-5-oxo-1,2,3,10,11,11a-hexahydro-5H-pyrrolo[2,1-c][1,4]benzodiazepine-10-carboxylic acid 4,5-dimethoxy-2-nitro-benzyl ester]
conversion to parent PBD complete in [1]: ≤ 12 h

COc1cc2c(cc1OC)N(C(=O)OCc1ccc(OC(=O)N[C@@H](CCC(=O)O)C(=O)O)cc1)[C@@H](O)[C@@H]1CCCN1C2=O [Compound 46, 2-[4-((11S,11aS)-7,8-Dimethoxy-11-hydroxy-5-oxo-1,2,3,10,11,11a-hexahydro-5H-pyrrolo[2,1-c][1,4]benzodiazepine-10-carbonyloxymethyl)-phenoxycarbonylamino]-pentanedioic acid]
conversion of the prodrug to the parent imine 30 complete in ([2]; HPLC aliquots every 10 min to 60 min): ≤ 60 min

COc1cc2c(cc1OCCCCCOc1cc3c(cc1OC)C(=O)N1CCC[C@H]1[C@H](O)N3C(=O)OCc1ccc(OC(=O)N[C@@H](CCC(=O)O)C(=O)O)cc1)N(C(=O)OCc1ccc(OC(=O)N[C@@H](CCC(=O)O)C(=O)O)cc1)[C@@H](O)[C@@H]1CCCN1C2=O [Compound 68, 1,1′-[[Pentane-1,5-diyl]dioxy]bis[(11S,11aS)-10-[N-(4-(L-glutamylcarbonyloxy)benzyloxycarbonyl)]-11-hydroxy-7-methoxy-1,2,3,10,11,11a-hexahydro-5H-pyrrolo[2,1-c][1,4]benzodiazepine-5-one]]
conversion of the prodrug to the parent imine 61 complete in ([2]; HPLC aliquots every 15 min to 75 min): ≤ 75 min
